Where two headings read alike, the source gives them in different places.
Key:
Type in all cases: biochemical
SIRT1 [1] = target: T1, SIRT1 (Homo sapiens, UniProt Q96EB6); assay: PNC1-OPT fluorescent Nicotinamide Assay of SIRT1 deacetylation
T1 sequence (Q96EB6 1-747): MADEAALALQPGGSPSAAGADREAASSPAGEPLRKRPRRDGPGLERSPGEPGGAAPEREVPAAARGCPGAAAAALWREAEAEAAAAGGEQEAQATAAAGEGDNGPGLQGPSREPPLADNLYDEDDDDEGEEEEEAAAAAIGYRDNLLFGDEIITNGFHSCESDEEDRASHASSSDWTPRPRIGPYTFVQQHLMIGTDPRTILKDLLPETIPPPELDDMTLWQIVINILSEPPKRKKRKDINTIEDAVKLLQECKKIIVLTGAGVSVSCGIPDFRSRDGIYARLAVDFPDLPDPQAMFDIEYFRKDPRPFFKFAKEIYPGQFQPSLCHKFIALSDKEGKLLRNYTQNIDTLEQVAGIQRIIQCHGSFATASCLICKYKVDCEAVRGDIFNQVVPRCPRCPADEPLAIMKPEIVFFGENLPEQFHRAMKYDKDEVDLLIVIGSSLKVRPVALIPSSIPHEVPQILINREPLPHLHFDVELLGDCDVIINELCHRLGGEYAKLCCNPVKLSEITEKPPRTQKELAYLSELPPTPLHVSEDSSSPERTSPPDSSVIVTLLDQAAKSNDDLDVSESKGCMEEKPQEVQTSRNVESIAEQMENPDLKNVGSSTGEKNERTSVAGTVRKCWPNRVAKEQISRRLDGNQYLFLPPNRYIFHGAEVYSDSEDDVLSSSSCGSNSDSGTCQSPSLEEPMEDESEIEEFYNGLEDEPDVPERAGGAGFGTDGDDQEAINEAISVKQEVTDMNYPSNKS
Method: A SIRT1 enzymatic deacetylation reaction was carried out in the presence of an acetylated substrate and β-NAD. […] Subsequently, PNC1 was added to the mixture to convert all of the nicotinamide generated during the reaction into ammonia. Additionally, PNC1 may be added directly to the SIRT1 reaction (and the reactions may proceed simultaneously). […] In brief, the products of the PNC1 reaction were reacted with o-phthaladehyde in the presence of DTT. The reaction was allowed to proceed for 1 hour, and subsequently the amount of fluorescent adducts obtained were measured fluorometrically with excitation at ˜413 nm and emission at ˜476 nm. […] A blank reaction was also performed in the absence of NAD.
Prepare a master-mix for the total number of reactions you wish to perform. For each individual reaction, mix the following in the order presented (the total volume for each reaction is 100 uL):
Incubate at 37° C. for the appropriate amount of time (typically 1 hour) Reaction 2: Nicotinamide→Ammonia→Fluorescent adducts Note: When adding the OPT Developer it is advisable to work in a dark or dimly lit setting. Dim the lights prior to adding the developer to each reaction. a) Add 100 uL of the OPT Developer Mix to each reaction. b) Mix each sample by vortexing briefly for 5 s at the highest setting. c) Immediately cover all of the samples with Aluminum foil, and incubate the reactions on an orbital shaker for 1 hour at room temperature. Once covered, ambient lighting may be restored. 3) If necessary samples may be transferred to a 96-well plate for reading (do this under dim light). Read the fluorescence on a fluorometer with filters set to excitation (˜420 nm+/−20, and emission ˜450 nm (+/−20). A 0.1 s or 1 s read is generally recommended.
OPT Developer Reagent: A solution of 10 mM OPT and 10 mM DTT in 100% EtOH. Store at −20° C. in the dark until use. Cover with Aluminum foil in order to minimize exposure to light.

[2] = target: T2, full-length human SIRT1 enzyme (Homo sapiens, UniProt Q96EB6); assay: Sirtuin assay kit (PNC1-OPT) with hSIRT1 enzyme
T2 construct: 1.1 ug/uL full-length human SIRT1 enzyme
T2 sequence (Q96EB6 1-747): T1 sequence (Q96EB6 1-747)
Method: Kit contents are generally stored at −20° C. Modifications or variations in volumes or amounts of components described below are compatible with kits and assays described herein. • 1) Assay Buffer: 2 tubes with 1 mL each of 10× Assay Buffer. Dilute to 1× with ddH20 prior to use. • 2) Non-tagged Peptide Substrate: 1 tube with 140 uL of 5 mM H3K9ac substrate (TARK(ac)STG)) (SEQ ID NO:23). This is a sample substrate only; any substrate may be used in this assay. • 3) β-NAD: a) 1 tube with 450 uL of 10 mM B-NAD, and b) 1 tube with 50 uL of 100 mM B-NAD. In some instances, it is preferable to keep β-NAD in concentrated aliquot form, and dilute it prior to use. • 4) hSIRT1 Enzyme: 1 tube with 400 uL of 1.1 ug/uL full-length human SIRT1 enzyme. • 5) yPNC1 Enzyme: 1 tube with 200 uL of 2 ug/uL yeast PNC1 enzyme • 6) Developing Reagent: 2 vials with 10 mL each 1× Developer (10 mM OPT/10 mM DTT in 100% EtOH). Minimize exposure to light as outlined in the procedure. […]
In some instances, when adding the OPT Developer it is advisable to work in a dark or dimly lit setting. […] Once covered, ambient lighting may be restored. • d) Read the samples. Samples may be transferred to a 96-well plate for reading (do this under dim light). Read the fluorescence on a fluorometer with filters set to excitation ˜420 nm, and emission ˜460 nm. […]

SIRT1 [3] = target: T1, SIRT1; assay: PNC1-GDH (non-fluorometric) Nicotinamide Assay of SIRT1 deacetylation; conditions: FIG. 4; Nicotinamide Assay depicted in FIG. 1 (PNC1-GDH); read-out: NAD Km value for SIRT1
Method: A SIRT1 enzymatic deacetylation reaction was carried out in the presence of an acetylated substrate and β-NAD. […] Subsequently, a-Ketoglutarate and NADPH were added to the reaction mix. The absorbance was read at 340 nm using an appropriate spectrophotometer (Ro). PNC1 and GDH were then added in excess to induce the coupled conversion of NADPH to NADP (PNC1 first converts NAM to NH3, and subsequently GDH uses the ammonia to oxidize NADPH to NADP). A second reading at 340 nm was then obtained (R1). The difference in absorbance readings, R1-Ro is proportional to the amount of NAM produced in the initial deacetylation reaction, thereby allowing for the measurement of activity. A blank reaction was carried out in the absence of NAD (or absence of Enzyme), as above, and subtracted from each sample in order to normalize the data.
Ex. Substrate Concentration (BIOMOL)=20 uM; NAD Concentration=1 mM
1) Mix the following (final volume 100 uL): • a) 10 uL 10×BIOMOL Buffer (250 mM Tris-Cl [pH=8], 1.37 M NaCl, 27 mM KCl, 10 mM MgCl2) • b) 0.4 uL *H4K16-Lys BIOMOL peptide (from a 5 mM stock for a final concentration of 20 uM) • c) 1 uL of 100 mM B-NAD (for a final concentration of 1 mM) • d) 2 uL SIRT1 enzyme (at 1.2 ug/ul, total ˜2.5 ug) • e) […] ddH20 2) Mix the reaction by pipetting. […] Place the reaction on ice until ready to proceed with reaction 2 (Centrifuge Briefly). […]

Compound: Adenosine diphosphate ribose [ADPr, reference compound]
- mechanism of SIRT1 inhibition (SIRT1 [1]; FIG. 19/20, Vmax and Vmax/K vs [ADPr] for β-NAD and H3K9 peptide): competitive inhibitor of β-NAD

Compound: DBC1: endogenous SIRT1 protein inhibitor
- effect of concentration on SIRT1 activity (dose titration) (SIRT1 [1]; FIG. 21B, H3K9-L peptide substrate): inversely correlates with SIRT1 activity

Compound: Oc1ccc(C=Cc2cc(O)cc(O)c2)cc1 [Resveratrol, reference compound]
- effect on SIRT1 deacetylase activity on the Fleur de Lys substrate (SIRT1 [1]; FIG. 10C, 100 uM, 75 uM β-NAD and 25 uM Fleur de Lys substrate): activation of SIRT1 deacetylase activity

Compound: NC(=O)C1=CN([C@@H]2O[C@H](COP(=O)(O)OP(=O)(O)OC[C@H]3O[C@@H](n4cnc5c(N)ncnc54)[C@H](O)[C@@H]3O)[C@@H](O)[C@H]2O)C=CC1 [NAD, β-nicotinamide adenine dinucleotide]
- Km ([2]; kit protocol, Experiment 2 mastermix, read-out: Km of β-NAD (final concentration = Km)): 150 µM
- Km ([2]; stated in kit protocol (blank control note), read-out: Km for NAD): ~160 µM
- Km (SIRT1 [3]): 80 to 100 µM
- Km (SIRT1 [1]; FIG. 8D, Nicotinamide Assay depicted in FIG. 6 (PNC1-OPT), Fleur de Lys peptide as substrate, read-out: NAD Km value for SIRT1): ~200 µM

From US20120164670A1, “METHODS AND KITS FOR MEASURING ENZYME ACTIVITY” (President and Fellows of Harvard College, priority 2009, published 2012)
